Where two headings read alike, the source gives them in different places.
Legend:
[1] = system: Phakopsora pachyrhizi (F129L); assay: Protective control of soybean rust on soybeans (PHAKPA P6); type: in vivo; details: for PHAKPA (F129L) Disease level (%) P6 at 4 ppm / PHAKPA (F129L) Disease level (%) P6 at 16 ppm: P6 protective, % diseased leaf area; for % PHAKPA (F129L) Disease level P6 at 4 ppm: protective P6, 4 ppm; for % PHAKPA (F129L) Disease level P6 at 4 ppm / % PHAKPA (F129L) Disease level P6 at 16 ppm: soybean rust F129L; for % PHAKPA (F129L) Disease level P6 at 16 ppm: protective P6, 16 ppm
[2] = system: Pyricularia oryzae; assay: microbe, parasite or virus in culture; type: cell-based; details: for activity at 0.016 ppm: Pyricularia oryzae, 168 h, read-out: Fungal growth (%) PYRIOR
[3] = system: Pyrenophora teres (wt); assay: Micro titer plate test against Pyrenophora teres causing net blotch on barley (PYRNTE wt); type: cell-based; details: 168 h, read-out: Fungal growth (%) PYRNTE wt
[4] = system: Leptosphaeria nodorum; assay: Micro titer plate test against Leptosphaeria nodorum causing wheat leaf spots (LEPTNO); type: cell-based; details: Parastagonospora nodorum, 168 h; 0.063 ppm; read-out: Fungal growth (%) LEPTNO
[5] = system: Phakopsora pachyrhizi (F129L); assay: Protective control of soybean rust on soybeans (PHAKPA P2); type: in vivo; details: for PHAKPA (F129L) Disease level (%) P2 at 16 ppm / PHAKPA (F129L) Disease level (%) P2 at 4 ppm: P2 protective, % diseased leaf area; for % PHAKPA (F129L) Disease level P2 at 4 ppm: protective P2, 4 ppm; for % PHAKPA (F129L) Disease level P2 at 4 ppm / % PHAKPA (F129L) Disease level P2 at 16 ppm: soybean rust F129L; for % PHAKPA (F129L) Disease level P2 at 16 ppm: protective P2, 16 ppm
[6] = system: Alternaria solani (wt); assay: microbe, parasite or virus in culture; type: cell-based; details: for activity at 0.016 ppm / activity at 0.25 ppm: Alternaria solani, 168 h, read-out: Fungal growth (%) ALTESO wt
[7] = system: Cercospora sojina; assay: microbe, parasite or virus in culture; type: cell-based; details: Cercospora sojina, 168 h; 4 ppm; read-out: Fungal growth (%) CERCSO
[8] = system: Colletotrichum orbiculare; assay: Micro titer plate test against Colletotrichum orbiculare causing anthracnose (COLLLA); type: cell-based; details: for activity at 0.063 ppm: Colletotrichum orbiculare, 168 h, read-out: Fungal growth (%) COLLLA
[9] = system: Pyrenophora teres (F129L); assay: Micro titer plate test against Pyrenophora teres causing net blotch on barley (PYRNTE F129L); type: cell-based; details: 0.25 ppm
[10] = system: Alternaria solani (F129L); assay: Micro titer plate test against Alternaria solani causing early blight (ALTESO F129L); type: cell-based
[11] = system: Microdochium nivale; assay: Micro titer plate test against Microdochium nivale causing snow mould (MONGNI); type: cell-based; details: Microdochium nivale, 168 h; 0.016 ppm; read-out: Fungal growth (%) MONGNI
[12] = system: Septoria tritici; assay: microbe, parasite or virus in culture; type: cell-based; details: for activity at 0.25 ppm: Zymoseptoria tritici, 168 h, read-out: Fungal growth (%) SEPTTR
[13] = system: Phakopsora pachyrhizi (wt); type: in vivo; details: Qo I-sensitive wt isolate (0% F129L)
[14] = Alternaria solani, 168 h, 0.016 ppm, read-out: Fungal growth (%) ALTESO F129L

CO/N=C(/C(=O)OC)c1cccc(C)c1CO/N=C(\C)c1cccc(C(F)(F)F)c1 [Ex. 9]
PHAKPA (F129L) Disease level (%) P6 at 4 ppm [1]: 41%
% PHAKPA (F129L) Disease level P6 at 4 ppm [1]: 41%
% PHAKPA (F129L) Disease level P6 at 16 ppm [1]: 4%
activity at 0.016 ppm [2]: 38%
activity at 0.025 ppm ([3]; 0.025 ppm): 44%
activity at 0.063 ppm [4]: 67%
PHAKPA (F129L) Disease level (%) P2 at 16 ppm [5]: 23%
% PHAKPA (F129L) Disease level P2 at 4 ppm [5]: 35%
% PHAKPA (F129L) Disease level P2 at 16 ppm [5]: 23%
activity at 0.016 ppm ([6]; 0.016 ppm): 73%
activity at 4 ppm [7]: 11%

CO/N=C(/C(=O)OC)c1cccc(C)c1CO/N=C(\C)c1cccc(C)c1 [Ex. 76]
% PHAKPA (F129L) Disease level P6 at 4 ppm [1]: 9%
% PHAKPA (F129L) Disease level P6 at 16 ppm [1]: 0%
activity at 0.063 ppm [8]: 39%
Fungal growth (%) PYRNTE F129L [9]: 66%
activity at 0.016 ppm [2]: 43%
activity at 0.016 ppm [10, 14]: 37%
activity at 0.25 ppm [3]: 39%
activity at 0.063 ppm [4]: 39%
PHAKPA (F129L) Disease level (%) P2 at 4 ppm [5]: 35%
PHAKPA (F129L) Disease level (%) P2 at 16 ppm [5]: 1%
% PHAKPA (F129L) Disease level P2 at 4 ppm [5]: 30%
% PHAKPA (F129L) Disease level P2 at 16 ppm [5]: 3%
activity at 0.016 ppm ([6]; 0.016 ppm): 55%
activity at 0.016 ppm [11]: 35%
activity at 4 ppm [7]: 28%
activity at 0.25 ppm [12]: 0%

CNC(=O)/C(=N/OC)c1cccc(C)c1CO/N=C(\C)c1cccc(C)c1 [Ex. 77]
PHAKPA (F129L) Disease level (%) P6 at 16 ppm [1]: 20%
% PHAKPA (F129L) Disease level P6 at 4 ppm [1]: 40%
% PHAKPA (F129L) Disease level P6 at 16 ppm [1]: 3%
Fungal growth (%) COLLLA ([8]; 0.063 ppm): 39%
Fungal growth (%) PYRIOR ([2]; 0.016 ppm): 20%
Fungal growth (%) ALTESO F129L ([10]; 0.016 ppm): 69%
PHAKPA (F129L) Disease level (%) P2 at 4 ppm [5]: 37%
% PHAKPA (F129L) Disease level P2 at 4 ppm [5]: 67%
% PHAKPA (F129L) Disease level P2 at 16 ppm [5]: 4%
Fungal growth (%) ALTESO wt ([6]; 0.016 ppm): 73%
Fungal growth (%) SEPTTR ([12]; 0.25 ppm): 49%

CO/N=C(/C(=O)OC)c1cccc(C)c1CO/N=C(\C)c1cccc(Cl)c1 [Ex. 153]
% PHAKPA (F129L) Disease level P6 at 4 ppm [1]: 22%
% PHAKPA (F129L) Disease level P6 at 16 ppm [1]: 1%
activity at 0.063 ppm [8]: 55%
activity at 0.016 ppm [2]: 50%
activity at 0.016 ppm [10, 14]: 68%
activity at 0.25 ppm [3]: 31%
activity at 0.063 ppm [4]: 55%
PHAKPA (F129L) Disease level (%) P2 at 4 ppm [5]: 19%
PHAKPA (F129L) Disease level (%) P2 at 16 ppm [5]: 5%
% PHAKPA (F129L) Disease level P2 at 4 ppm [5]: 12%
% PHAKPA (F129L) Disease level P2 at 16 ppm [5]: 3%
activity at 0.016 ppm ([6]; 0.016 ppm): 71%
activity at 0.016 ppm [11]: 75%
activity at 4 ppm [7]: 26%
activity at 0.25 ppm [12]: 0%

CNC(=O)/C(=N/OC)c1cccc(C)c1CO/N=C(\C)c1cccc(Cl)c1 [Ex. 157]
PHAKPA (F129L) Disease level (%) P6 at 4 ppm [1]: 2%
PHAKPA (F129L) Disease level (%) P6 at 16 ppm [1]: 1%
% PHAKPA (F129L) Disease level P6 at 4 ppm [1]: 1%
% PHAKPA (F129L) Disease level P6 at 16 ppm [1]: 0%
activity at 0.063 ppm [8]: 63%
Fungal growth (%) PYRNTE F129L [9]: 58%
activity at 0.016 ppm [2]: 15%
activity at 0.016 ppm [10, 14]: 57%
activity at 0.25 ppm [3]: 54%
% PHAKPA (F129L) Disease level P2 at 4 ppm [5]: 1%
% PHAKPA (F129L) Disease level P2 at 16 ppm [5]: 0%
activity at 0.25 ppm [6]: 27%
activity at 0.016 ppm [11]: 56%
activity at 4 ppm [7]: 36%
activity at 0.25 ppm [12]: 20%

Cc1cccc(-n2nnn(C)c2=O)c1COc1ccn(-c2ccc(Cl)cc2)n1 [drawing 930]
PHAKPA P1 DL Disease level (%) ([13]; 0.3 ppm): 78%
PHAKPA P1 DL Disease level (%) ([13]; 1 ppm): 80%
PHAKPA P1 DL Disease level (%) ([13]; 3 ppm): 77%
PHAKPA P1 DL Disease level (%) ([13]; 10 ppm): 48%
PHAKPA P1 DL Disease level (%) ([13]; 30 ppm): 30%
PHAKPA P1 DL Disease level (%) ([13]; 100 ppm): 18%
PHAKPA P1 DL Disease level (%) ([13]; 300 ppm): 5%

CO/N=C(/C(=O)OC)c1cccc(C)c1CO/N=C(\C)c1cccc(OC(F)(F)F)c1 [drawing 938]
activity at 0.063 ppm [8]: 77%
activity at 4 ppm ([10]; Alternaria solani, 168 h, 4 ppm, read-out: Fungal growth (%) ALTESO F129L): 87%

CO/N=C(/C(=O)OC)c1cccc(C)c1CO/N=C(\C)c1cccc(OC(F)(F)F)c1 [drawing 940]
Fungal growth (%) PYRNTE F129L [9]: 84%
activity at 0.25 ppm [3]: 87%
activity at 0.063 ppm [4]: 79%
activity at 0.016 ppm [11]: 86%

CO/N=C(/C(=O)OC)c1cccc(C)c1CO/N=C(\SC)c1cccc(C)c1 [drawing 950]
activity at 0.063 ppm [8]: 81%
activity at 0.016 ppm [2]: 87%
activity at 0.016 ppm [11]: 69%
activity at 0.25 ppm [12]: 61%

CO/N=C(/C(=O)OC)c1cccc(C)c1CO/N=C(/c1cccc(C)c1)C1CC1 [drawing 951]
activity at 0.063 ppm [8]: 93%
Fungal growth (%) PYRNTE F129L [9]: 87%
activity at 0.016 ppm [2]: 82%
activity at 0.016 ppm [11]: 84%
activity at 0.25 ppm [12]: 89%

CO/N=C(/C(=O)OC)c1cccc(C)c1CO/N=C(\SC)c1cccc(C)c1 [drawing 953]
activity at 0.016 ppm [10, 14]: 66%
activity at 0.25 ppm [3]: 59%
activity at 0.063 ppm [4]: 85%
activity at 0.016 ppm ([6]; 0.016 ppm): 67%
activity at 4 ppm [7]: 71%

CO/N=C(/C(=O)OC)c1cccc(C)c1CO/N=C(\OC)c1cccc(C)c1 [drawing 954]
activity at 0.016 ppm [10, 14]: 81%
activity at 0.25 ppm [3]: 53%
activity at 0.063 ppm [4]: 65%
activity at 0.016 ppm ([6]; 0.016 ppm): 93%
activity at 4 ppm [7]: 67%

CO/N=C(/C(=O)OC)c1cccc(C)c1CO/N=C(/c1cccc(C)c1)C1CC1 [drawing 955]
activity at 0.016 ppm [10, 14]: 87%
activity at 0.25 ppm [3]: 78%
activity at 0.063 ppm [4]: 100%
activity at 0.016 ppm ([6]; 0.016 ppm): 100%
activity at 4 ppm [7]: 87%

CNC(=O)/C(=N/OC)c1cccc(C)c1CO/N=C(\OC)c1cccc(C)c1 [drawing 957]
activity at 0.063 ppm [8]: 81%
activity at 0.016 ppm [2]: 80%
activity at 0.016 ppm [10, 14]: 95%
activity at 0.016 ppm ([6]; 0.016 ppm): 93%
activity at 0.25 ppm [12]: 100%

CNC(=O)/C(=N/OC)c1cccc(C)c1CO/N=C(/c1cccc(C)c1)C1CC1 [drawing 958]
activity at 0.063 ppm [8]: 93%
activity at 0.016 ppm [2]: 81%
activity at 0.016 ppm [10, 14]: 93%
activity at 0.016 ppm ([6]; 0.016 ppm): 89%
activity at 0.25 ppm [12]: 87%

CO/N=C(/C(=O)OC)c1cccc(C)c1CO/N=C(\SC)c1cccc(Cl)c1 [drawing 960]
activity at 0.063 ppm [8]: 82%
activity at 0.016 ppm [2]: 88%
activity at 0.016 ppm [10, 14]: 100%
activity at 0.016 ppm ([6]; 0.016 ppm): 94%
activity at 0.25 ppm [12]: 39%

CO/N=C(/C(=O)OC)c1cccc(C)c1CO/N=C(/c1cccc(Cl)c1)C1CC1 [drawing 961]
activity at 0.063 ppm [8]: 89%
activity at 0.016 ppm [2]: 83%
activity at 0.016 ppm [10, 14]: 89%
activity at 0.016 ppm ([6]; 0.016 ppm): 81%
activity at 0.25 ppm [12]: 39%

CO/N=C(/C(=O)OC)c1cccc(C)c1CO/N=C(\SC)c1cccc(Cl)c1 [drawing 963]
activity at 0.25 ppm [3]: 57%
activity at 0.063 ppm [4]: 88%
activity at 0.016 ppm [11]: 95%
activity at 4 ppm [7]: 62%

CNC(=O)/C(=N/OC)c1cccc(C)c1CO/N=C(\SC)c1cccc(Cl)c1 [drawing 966]
activity at 0.063 ppm [8]: 82%
activity at 0.016 ppm [2]: 100%
activity at 0.016 ppm [10, 14]: 90%
activity at 0.25 ppm [6]: 43%
activity at 0.25 ppm [12]: 59%

CNC(=O)/C(=N/OC)c1cccc(C)c1CO/N=C(\SC)c1cccc(Cl)c1 [drawing 968]
Fungal growth (%) PYRNTE F129L [9]: 80%
activity at 0.25 ppm [3]: 76%
activity at 0.016 ppm [11]: 100%
activity at 4 ppm [7]: 78%
